Results taken from US7781565B2 (priority 2006, dated 2010).
Entries after “also recorded” stand apart in the source; their conditions may differ.

Test system: NCI-60 cell lines
Format: cell-based, human

SRGSTAG
Cell Line with which the peptide (and its tripeptide motif) is associated: H322-Lung

GYLGRLP
Cell Line the peptide is associated with (peptide recovered from phage library selection on this NCI-60 cell line): NCI/ADR-RES Breast

GFASLLR
Cell Line (NCI-60 cell line the peptide is associated with): HCT-15 Colon

FGGSGRG
Cell Line (NCI-60 cell line the peptide is associated with): LOX-IMVI Melanoma

LRAVEFL
Cell Line (NCI-60 cell line the peptide is associated with): MALME-3M Melanoma

VTDGAGQ
Cell Line (NCI-60 cell line the peptide is associated with): SF-268 CNS

ARLLRGG
Cell Line (NCI-60 cell line the peptide and its motif are associated with): DU-145 Prostate

LVRSSGL
Cell Line with which the peptide (and its tripeptide motif) is associated: Hop-92-Lung

FAQRRVS
Cell Line the peptide is associated with (peptide recovered from phage library selection on this NCI-60 cell line): SN12C Renal

SPGVSGR
Cell Line (NCI-60 cell line the peptide is associated with): SW620-Colon

DWRRRAV
Cell Line (NCI-60 cell line the peptide is associated with): HCT-15 Colon

GRVRETP
Cell Line (NCI-60 cell line the peptide and its motif are associated with): UACC62 Melanoma

RRLSSIA
Cell Line the peptide is associated with (peptide recovered from phage library selection on this NCI-60 cell line): TK-10 Renal

VYYALRS
Cell Line (NCI-60 cell line the peptide is associated with): KM-12C Colon

WQVSGVR
Cell Line (NCI-60 cell line the peptide is associated with): KM-12C Colon

PIGGLFG
Cell Line the peptide is associated with (peptide recovered from phage library selection on this NCI-60 cell line): ACHN Renal

LRLSGHD
Cell Line the peptide is associated with (peptide recovered from phage library selection on this NCI-60 cell line): NCI/ADR-RES Breast

VEYAAGR
Cell Line with which the peptide (and its tripeptide motif) is associated: CCRF-CEM Leukemia

NYGSSFH
Cell Line with which the peptide (and its tripeptide motif) is associated: Hop-62-Lung

AGGGPPA
Cell Line with which the peptide (and its tripeptide motif) is associated: EKVX-Lung

KSGSSVL
Cell Line with which the peptide (and its tripeptide motif) is associated: HL-60-Leukemia

ALVSFSV
Cell Line with which the peptide (and its tripeptide motif) is associated: EKVX-Lung

VDGSGDD
Cell Line (NCI-60 cell line the peptide and its motif are associated with): DU-145 Prostate

ASLPVLD
Cell Line (NCI-60 cell line the peptide and its motif are associated with): M14 Melanoma

TLTAAVF
Cell Line (NCI-60 cell line the peptide and its motif are associated with): UACC 257 Melanoma

VGRGRLH
Cell Line with which the peptide (and its tripeptide motif) is associated: EKVX-Lung

WSSTASL
Cell Line with which the peptide (and its tripeptide motif) is associated: H460-Lung

GGSRGYR
Cell Line the peptide is associated with (peptide recovered from phage library selection on this NCI-60 cell line): UO31 Renal

TICLGLG
Cell Line the peptide is associated with (peptide recovered from phage library selection on this NCI-60 cell line): CAIK-1 Renal

GFVAGRT
Cell Line (NCI-60 cell line the peptide and its motif are associated with): SK-MEL-5 Melanoma

VLRGSTP
Cell Line (NCI-60 cell line the peptide and its motif are associated with): PC3 Prostate

RSSSSTR
Cell Line (NCI-60 cell line the peptide is associated with): SNB-75 CNS

WGRGSVA
Cell Line with which the peptide (and its tripeptide motif) is associated: Molt-4-Leukemia

VMLLRPE
Cell Line with which the peptide (and its tripeptide motif) is associated: HL-60-Leukemia

YADGAAV
Cell Line (NCI-60 cell line the peptide is associated with): SF-295 CNS

SFWWLRS
Cell Line the peptide is associated with (peptide recovered from phage library selection on this NCI-60 cell line): TK-10 Renal

RVARGDR
Cell Line (NCI-60 cell line the peptide is associated with): KM-12C Colon

DGPSCVI
Cell Line (NCI-60 cell line the peptide and its motif are associated with): UACC62 Melanoma

RGSFGLG
Cell Line the peptide is associated with (peptide recovered from phage library selection on this NCI-60 cell line): T-47D Breast

VLRSGEL
Cell Line (NCI-60 cell line the peptide is associated with): SF-295 CNS

GLRLGVT
Cell Line (NCI-60 cell line the peptide is associated with): HT-29 Colon

PGFMAGS
Cell Line (NCI-60 cell line the peptide and its motif are associated with): UACC62 Melanoma

LLRSHGV
Cell Line (NCI-60 cell line the peptide is associated with): SF-295 CNS

GWHGPSH
Cell Line with which the peptide (and its tripeptide motif) is associated: A549-Lung

LSRGSVA
Cell Line (NCI-60 cell line the peptide and its motif are associated with): M14 Melanoma

DTPAGRL
Cell Line the peptide is associated with (peptide recovered from phage library selection on this NCI-60 cell line): MDA-MB-231 Breast

PQGRGVK
Cell Line (NCI-60 cell line the peptide is associated with): SNB-75 CNS

VRVGRLS
Cell Line (NCI-60 cell line the peptide and its motif are associated with): UACC62 Melanoma

VGLRVRF
Cell Line the peptide is associated with (peptide recovered from phage library selection on this NCI-60 cell line): BT-549 Breast

FGRLLSP
Cell Line (NCI-60 cell line the peptide and its motif are associated with): UACC62 Melanoma

GSSYSGP
Cell Line (NCI-60 cell line the peptide is associated with): HCT-116 Colon

RGVSLKG
Cell Line with which the peptide (and its tripeptide motif) is associated: H226-Lung

GSVLHVS
Cell Line the peptide is associated with (peptide recovered from phage library selection on this NCI-60 cell line): HS 578 T Breast

IGRLLPL
Cell Line with which the peptide (and its tripeptide motif) is associated: HL-60-Leukemia

IGVRGFF
Cell Line with which the peptide (and its tripeptide motif) is associated: Molt-4-Leukemia

AEYGRVL
Cell Line (NCI-60 cell line the peptide and its motif are associated with): M14 Melanoma

AAYWGPS
Cell Line the peptide is associated with (peptide recovered from phage library selection on this NCI-60 cell line): A498 Renal

GHYRASV
Cell Line (NCI-60 cell line the peptide is associated with): HT-29 Colon

VGAGRFT
Cell Line the peptide is associated with (peptide recovered from phage library selection on this NCI-60 cell line): MDA-MB-231 Breast

GGGLPVD
Cell Line the peptide is associated with (peptide recovered from phage library selection on this NCI-60 cell line): MDA-MB-231 Breast

LRARGGH
Cell Line (NCI-60 cell line the peptide is associated with): HT-29 Colon

RLSGAGD
Cell Line (NCI-60 cell line the peptide and its motif are associated with): OVCAR-5 Ovarian

ARGTMTG
Cell Line the peptide is associated with (peptide recovered from phage library selection on this NCI-60 cell line): ACHN Renal

WGAGLDA
Cell Line (NCI-60 cell line the peptide and its motif are associated with): OVCAR-4 Ovarian

LLRSVGY
Cell Line (NCI-60 cell line the peptide and its motif are associated with): DU-145 Prostate

IDLGRVN
Cell Line (NCI-60 cell line the peptide and its motif are associated with): SK-MEL-5 Melanoma

LFGSSVS
Cell Line the peptide is associated with (peptide recovered from phage library selection on this NCI-60 cell line): SN12C Renal

ARGIVRV
Cell Line (NCI-60 cell line the peptide is associated with): SW620-Colon

TEGSVTV
Cell Line with which the peptide (and its tripeptide motif) is associated: HL-60-Leukemia

LLRPGTV
Cell Line (NCI-60 cell line the peptide is associated with): HCC-2998-Colon

TFGKGGL
Cell Line with which the peptide (and its tripeptide motif) is associated: HL-60-Leukemia

VRGSVRA
Cell Line with which the peptide (and its tripeptide motif) is associated: H23-Lung

NRSSHCG
Cell Line (NCI-60 cell line the peptide and its motif are associated with): M14 Melanoma

RAVWRAS
Cell Line (NCI-60 cell line the peptide and its motif are associated with): SK-MEL-2 Melanoma

LLSLDPG
Cell Line (NCI-60 cell line the peptide and its motif are associated with): SK-MEL-2 Melanoma

LQGSGAY
Cell Line (NCI-60 cell line the peptide and its motif are associated with): OVCAR-8 Ovarian

VRVSLNS
Cell Line the peptide is associated with (peptide recovered from phage library selection on this NCI-60 cell line): MDA-MB-231 Breast

AGLGHEG
Cell Line with which the peptide (and its tripeptide motif) is associated: H23-Lung

GRLWGFW
Cell Line with which the peptide (and its tripeptide motif) is associated: H226-Lung

VPSGSVR
Cell Line the peptide is associated with (peptide recovered from phage library selection on this NCI-60 cell line): NCI/ADR-RES Breast

LVRDGVL
Cell Line (NCI-60 cell line the peptide is associated with): MALME-3M Melanoma

LHAGSSV
Cell Line the peptide is associated with (peptide recovered from phage library selection on this NCI-60 cell line): MDA-MB-231 Breast

ASLVARN
Cell Line (NCI-60 cell line the peptide and its motif are associated with): SK-OV-3-3 Ovarian

SEQRGGL
Cell Line the peptide is associated with (peptide recovered from phage library selection on this NCI-60 cell line): ACHN Renal

YDGRLAR
Cell Line (NCI-60 cell line the peptide is associated with): SNB-19 CNS; also recorded: SF-539 CNS

QGYALRV
Cell Line with which the peptide (and its tripeptide motif) is associated: H23-Lung

RVSSETF
Cell Line (NCI-60 cell line the peptide and its motif are associated with): A498 Renal

GGRRVVV
Cell Line the peptide is associated with (peptide recovered from phage library selection on this NCI-60 cell line): NCI/ADR-RES Breast

INRGSRE
Cell Line (NCI-60 cell line the peptide and its motif are associated with): SK-MEL-28 Melanoma

GAGSISD
Cell Line with which the peptide (and its tripeptide motif) is associated: RPMI-8226-Leukemia

ATLDGVS
Cell Line (NCI-60 cell line the peptide and its motif are associated with): SK-OV-3-3 Ovarian

VAGRVGI
Cell Line (NCI-60 cell line the peptide and its motif are associated with): MALME-3M Melanoma
Cell Line (NCI-60 cell line the peptide is associated with): MALME-3M Melanoma

ASGRVAN
Cell Line (NCI-60 cell line the peptide is associated with): HCT-116 Colon

GVSTGFT
Cell Line with which the peptide (and its tripeptide motif) is associated: K-562-Leukemia

FRAASLL
Cell Line the peptide is associated with (peptide recovered from phage library selection on this NCI-60 cell line): MDA-MB-231 Breast

SARQGGR
Cell Line (NCI-60 cell line the peptide and its motif are associated with): M14 Melanoma

RAAGRVG
Cell Line (NCI-60 cell line the peptide is associated with): HCT-15 Colon

TLGLRVP
Cell Line the peptide is associated with (peptide recovered from phage library selection on this NCI-60 cell line): TK-10 Renal

TRVSGSG
Cell Line the peptide is associated with (peptide recovered from phage library selection on this NCI-60 cell line): BT-549 Breast

RAVGYNA
Cell Line (NCI-60 cell line the peptide is associated with): MALME-3M Melanoma

MSARGIL
Cell Line (NCI-60 cell line the peptide and its motif are associated with): SK-OV-3-3 Ovarian

GSSRPSI
Cell Line (NCI-60 cell line the peptide is associated with): HCT-15 Colon

CPGSGII
Cell Line (NCI-60 cell line the peptide is associated with): LOX-IMVI Melanoma

AGPSRGP
Cell Line (NCI-60 cell line the peptide and its motif are associated with): UACC 257 Melanoma

GVRGGGD
Cell Line the peptide is associated with (peptide recovered from phage library selection on this NCI-60 cell line): CAIK-1 Renal

REAERVS
Cell Line with which the peptide (and its tripeptide motif) is associated: H322-Lung

VRLRAVF
Cell Line the peptide is associated with (peptide recovered from phage library selection on this NCI-60 cell line): TK-10 Renal

RGSAQNF
Cell Line with which the peptide (and its tripeptide motif) is associated: RPMI-8226-Leukemia

FLRSLSL
Cell Line (NCI-60 cell line the peptide and its motif are associated with): SK-MEL-5 Melanoma

YGLRSLV
Cell Line the peptide is associated with (peptide recovered from phage library selection on this NCI-60 cell line): BT-549 Breast

EAGPRGV
Cell Line the peptide is associated with (peptide recovered from phage library selection on this NCI-60 cell line): BT-549 Breast

YRGSSGK
Cell Line with which the peptide (and its tripeptide motif) is associated: RPMI-8226-Leukemia

QGRVNVK
Cell Line (NCI-60 cell line the peptide is associated with): SNB-19 CNS; also recorded: SF-539 CNS
Cell Line with which the peptide (and its tripeptide motif) is associated: H226-Lung

LRGSVGR
Cell Line (NCI-60 cell line the peptide and its motif are associated with): SK-MEL-28 Melanoma

ASLPMLH
Cell Line the peptide is associated with (peptide recovered from phage library selection on this NCI-60 cell line): ACHN Renal

FGLRNSR
Cell Line with which the peptide (and its tripeptide motif) is associated: HL-60-Leukemia

GQGAASL
Cell Line with which the peptide (and its tripeptide motif) is associated: H522-Lung

PLAVSMV
Cell Line with which the peptide (and its tripeptide motif) is associated: SR Leukemia

IDLVSPG
Cell Line (NCI-60 cell line the peptide and its motif are associated with): OVCAR-8 Ovarian

GGLEQDG
Cell Line the peptide is associated with (peptide recovered from phage library selection on this NCI-60 cell line): SN12C Renal

LLRSSLG
Cell Line (NCI-60 cell line the peptide is associated with): HCT-116 Colon

GGSVRHV
Cell Line with which the peptide (and its tripeptide motif) is associated: RPMI-8226-Leukemia

AASLRGT
Cell Line (NCI-60 cell line the peptide and its motif are associated with): UACC62 Melanoma

TSLLSFR
Cell Line with which the peptide (and its tripeptide motif) is associated: CCRF-CEM Leukemia

SRYTLRS
Cell Line (NCI-60 cell line the peptide and its motif are associated with): IGROV1 Ovarian

GVLHSIA
Cell Line with which the peptide (and its tripeptide motif) is associated: K-562-Leukemia

GSGHSFA
Cell Line (NCI-60 cell line the peptide is associated with): KM-12C Colon

LSLAGAG
Cell Line (NCI-60 cell line the peptide is associated with): HT-29 Colon

FGIGRGV
Cell Line (NCI-60 cell line the peptide and its motif are associated with): SK-MEL-5 Melanoma

GSNGSSH
Cell Line (NCI-60 cell line the peptide and its motif are associated with): OVCAR-8 Ovarian

GRVKPGA
Cell Line (NCI-60 cell line the peptide and its motif are associated with): DU-145 Prostate
